Test results from ChEMBL document CHEMBL1141008, “Identification of small molecule agonists of the motilin receptor” (Bioorg Med Chem Lett, 2008).

Tests used:
[1] = target: T1, Motilin receptor (Homo sapiens, UniProt O43193); assay: Agonist activity at human recombinant motilin receptor expressed in HEK293 cells by calcium mobilization-based FLIPR assay; format: functional, cell-based
[2] = target: T1, Motilin receptor; assay: Agonist activity at human recombinant motilin receptor expressed in CHO cells by calcium mobilization-based FLIPR assay; format: functional, cell-based
[3] = target: T1, Motilin receptor; assay: Intrinsic activity at human recombinant motilin receptor expressed in CHO cells by calcium mobilization-based FLIPR assay relative to motilin; format: functional, cell-based
[4] = system: Stomach; assay: Increase in electric field stimulated contractile response in New Zealand White rabbit gastric antrum at 0.3 uM preincubated for 15 mins; format: functional, Oryctolagus cuniculus
[5] = Half life in New Zealand White rabbit gastric antrum at 0.3 uM; format: ADME, tissue-based, Oryctolagus cuniculus, Stomach
[6] = Selectivity for human recombinant motilin receptor over ghrelin receptor in FLIPR assay
[7] = system: Stomach; assay: Increase in electric field stimulated contractile response in New Zealand White rabbit gastric antrum at 10 uM pre-incubated for 15 mins; format: functional, Oryctolagus cuniculus
[8] = Half life in New Zealand White rabbit gastric antrum at 10 uM; format: ADME, tissue-based, Oryctolagus cuniculus, Stomach
[9] = target: Growth hormone secretagogue receptor type 1 (Homo sapiens) (UniProt Q92847); assay: Activity at ghrelin receptor in human recombinant cells by calcium mobilization-based FLIPR assay
Chain of Growth hormone secretagogue receptor type 1 (Homo sapiens) (Q92847 whole entry, looked up): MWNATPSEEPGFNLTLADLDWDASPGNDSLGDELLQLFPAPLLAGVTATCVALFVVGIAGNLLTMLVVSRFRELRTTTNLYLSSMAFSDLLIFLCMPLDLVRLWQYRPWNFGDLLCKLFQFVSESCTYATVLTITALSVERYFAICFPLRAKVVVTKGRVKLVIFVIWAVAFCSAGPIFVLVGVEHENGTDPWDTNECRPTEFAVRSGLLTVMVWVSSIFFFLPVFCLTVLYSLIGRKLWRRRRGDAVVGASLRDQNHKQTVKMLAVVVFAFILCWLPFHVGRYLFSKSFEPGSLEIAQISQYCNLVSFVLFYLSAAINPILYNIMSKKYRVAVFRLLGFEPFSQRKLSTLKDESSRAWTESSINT

[10] = system: Stomach; assay: Increase in electric field stimulated contractile response in New Zealand White rabbit gastric antrum at 3 uM pre-incubated for 15 mins; format: functional, Oryctolagus cuniculus
[11] = Half life in New Zealand White rabbit gastric antrum at 3 uM; format: ADME, tissue-based, Oryctolagus cuniculus, Stomach

T1 sequence (O43193 whole entry): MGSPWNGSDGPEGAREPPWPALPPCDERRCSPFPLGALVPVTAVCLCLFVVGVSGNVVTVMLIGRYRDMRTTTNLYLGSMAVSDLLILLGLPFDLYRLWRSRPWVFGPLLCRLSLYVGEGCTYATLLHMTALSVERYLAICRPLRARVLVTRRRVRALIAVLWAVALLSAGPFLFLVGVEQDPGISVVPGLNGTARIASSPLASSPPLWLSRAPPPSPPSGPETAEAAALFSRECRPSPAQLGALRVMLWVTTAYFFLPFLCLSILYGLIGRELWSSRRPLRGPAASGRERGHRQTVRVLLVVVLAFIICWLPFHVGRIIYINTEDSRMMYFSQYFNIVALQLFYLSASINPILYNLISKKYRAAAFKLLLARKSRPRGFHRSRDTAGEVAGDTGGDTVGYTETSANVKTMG

| SMILES | EC50 [1] [nM] | EC50 [2] [nM] | Activity [3] | also measured |
| --- | --- | --- | --- | --- |
| COCCCN(Cc1ccccc1-c1ccc(CN2CCNCC2)cc1)C(C)=O | 631 | – | – | – |
| COc1cccc(CCN(Cc2ccccc2-c2ccc(N3CCNCC3)cc2)C(=O)NC2CCCCC2)c1 | – | 5010 | 0.9 | – |
| COCCCN(Cc1ccccc1-c1ccc(CN2CCOCC2)cc1)C(=O)Cc1ccccc1 | – | > 12600 | – | – |
| COc1cccc(CCN(Cc2ccccc2-c2ccc(CC3CCNCC3)cc2)C(=O)NC2CCCCC2)c1 | – | 398 | 0.6 | – |
| COCCCN(Cc1ccccc1-c1ccc(CN2CCN(C(C)=O)CC2)cc1)C(=O)Cc1ccccc1 | – | > 12600 | – | – |
| CC[C@H](C)[C@H](NC(=O)[C@@H]1CCCN1C(=O)[C@@H](NC(=O)[C@@H](N)Cc1ccccc1)C(C)C)C(=O)N[C@@H](Cc1ccccc1)C(=O)N[C@H](C(=O)N[C@@H](Cc1ccc(O)cc1)C(=O)NCC(=O)N[C@@H](CCC(=O)O)C(=O)N[C@@H](CC(C)C)C(=O)N[C@@H](CCC(N)=O)C(=O)N[C@@H](CCCN=C(N)N)C(=O)N[C@@H](CCSC)C(=O)N[C@@H](CCC(N)=O)C(=O)N[C@@H](CCC(=O)O)C(=O)N[C@@H](CCCCN)C(=O)N[C@@H](CCC(=O)O)C(=O)N[C@@H](CCCN=C(N)N)C(=O)N[C@@H](CC(N)=O)C(=O)N[C@@H](CCCCN)C(=O)NCC(=O)N[C@@H](CCC(N)=O)C(=O)O)[C@@H](C)O [MOTILIN] | – | – | – | Activity [4]: 506%; half-life at 0.3 µM [5]: 9 min |
| COCCCN(Cc1ccccc1-c1ccc(CN2CCCCC2)cc1)C(=O)Cc1ccccc1 | – | > 12600 | – | – |
| COCCCN(Cc1ccccc1-c1ccc(CN2CCNCC2)cc1)S(=O)(=O)c1ccc(F)cc1 | 631 | – | – | – |
| COc1cccc(CCN(Cc2ccccc2-c2ccc(CN3C[C@@H](C)N[C@@H](C)C3)cc2)C(=O)NC2CCCCC2)c1 | – | – | 1 | fold change (FC) [6]: 10; Activity [7]: 182%; half-life at 10 µM [8]: 39 min; EC50 [9]: 126 nM |
| COCCCN(Cc1ccccc1-c1ccc(CN(C)CCN(C)C)cc1)C(=O)Cc1ccccc1 | – | 3160 | 0.4 | – |
| COCCCN(Cc1ccccc1-c1ccc(CN2CCN(C)CC2)cc1)C(=O)Cc1ccccc1 | – | > 12600 | – | – |
| COc1cccc(CCN(Cc2ccccc2-c2ccc(CN3CCNCC3)cc2)C(=O)Cc2ccccc2)c1 | 1000 | – | – | – |
| COc1cccc(CCNCc2ccccc2-c2ccc(CN3CCNCC3)cc2)c1 | 5010 | – | – | – |
| COCCCN(Cc1ccccc1-c1ccc(C(=O)N2CCNCC2)cc1)C(=O)Cc1ccccc1 | – | > 3160 | – | – |
| O=C(NC1CCCCC1)N(CCc1ccccc1)Cc1ccccc1-c1cccc(CN2CCNCC2)c1 | 1580 | – | – | – |
| COc1cccc(CCN(Cc2ccccc2-c2ccc(CN3CCNCC3)cc2)C(=O)NC2CCCCC2)c1 | 100 | 50.1 | 0.9 | – |
| CC[C@H]1OC(=O)[C@H](C)[C@@H](O[C@H]2C[C@@](C)(OC)[C@@H](O)[C@H](C)O2)[C@H](C)[C@@H](O[C@@H]2O[C@H](C)C[C@H](N(C)C)[C@H]2O)[C@](C)(O)C[C@@H](C)C(=O)[C@H](C)[C@@H](O)[C@]1(C)O [ERYTHROMYCIN] | – | – | – | Activity [10]: 490%; half-life at 3 µM [11]: 23 min |
| COCCCN(Cc1ccccc1-c1ccc(CN2CCNCC2)cc1)C(=O)Cc1ccccc1 | – | 794 | 0.7 | – |
| COCCCN(Cc1ccccc1-c1ccc(CN2CCNCC2)cc1)C(=O)NC1CCCCC1 | 501 | – | – | – |
| COc1cccc(CCN(Cc2ccccc2-c2ccc(CCN3CCNCC3)cc2)C(=O)NC2CCCCC2)c1 | – | > 12600 | – | – |
